Source: patent US20210244791A1, “APPLICATION OF PEDF-DERIVED SHORT PEPTIDES IN TENDON HEALING” (BRIM Biotechnology, Inc., priority 2018, published 2021)

Tests used:
tendon rupture = settings: rat model; previous study; cited from earlier work
[1] = system: cultured tendon stem/progenitor cells (TSPC); settings: peptide added in culture medium; previous study; cited from earlier work
Primary rabbit TSPC = experiment: TSPC cell proliferation assay (fluorometric kit); assay type: cell-based; settings: 10 μM peptide, low serum media, PDSP solvent (DMSO) set as 100%, mean±SE of three experiments
Procedure: Primary rabbit TSPC were cultured to near-confluence in a 75T cell culture flask and then verified by immunostaining of a TSPC marker, nucleostemin (>98%; green color). Nuclei were stained with Hoechst 33258 (blue color) and visualized by an epifluorescence microscopy. The nucleostemine-positive TSPC were treated with 10 μM 29-mer or its variants for 24 h. The numbers of TSPC after 24-h expansion were detected with a cell proliferation assay kit (BioVision; catalog number: K307). The TSPC treated with PDSP solvent was set as 100%. Results are expressed as mean±SE of three independent experiments.
(§1) Achilles tendons from New Zealand White rabbits (6-8 months old, 3.0-4.0 kg) were used in this study. Achilles tendons were washed two times with sterile phosphate-buffered saline (PBS) containing 50 μg/ml gentamicin. The tendon and tendon sheath were cut into small pieces (1-2 mm^3). Each 100 mg of fragment was then digested in a solution containing 3 mg/ml of type I collagenase and 4 mg/ml of dispase in 1 ml balance salt solution (BSS; Alcone) at 37° C. for 4 hours. The digested tissues were washed three times with PBS and collected by centrifugation (800 g for 10 min). The digested tissues were placed in tissue-culture plates (Falcon Labware; NJ, USA) and resuspended in high-glucose DMEM supplemented with 10% FBS and 50 μg/ml gentamycin, and maintained at 37° C. with 5% CO2. After 5 days, the medium was changed to remove the loosened tissue residues. Subsequently, tendon cells were incubated with 10% FBS medium for 2 days, and then cultured with a basal medium (2% FBS, 1% ITSE, 300 μg/ml L-glutamine, 1% antibiotic-antimicotic solutions) for further 10 days. Culture medium was changed every 3 days. For passage, tendon cells were harvested with 0.25% trypsin/EDTA, cell counting by haemocytometer, approximately 5×10^3 cells were seeded in each well of a 96-well cell culture plate or 2×10^5 cells were seeded in each well of a 6-well cell culture plate for 24 h. These expanded tendon cells were then treated with 10 μM 29-mer or its variants in fresh basal medium for further 24 h and subjected to cell proliferation assay and western blot analysis, respectively.
Cell Proliferation Assay Kit (Fluorometric) was purchased from BioVision (Catalog #: K307) and used to evaluate cell proliferation according to the manufacturer's recommendations. The fluorescence was read at 480 nm for excitation and 538 nm for emission on a SPECTRAmax GEMINI XS fluorescence microplate spectrophotometer (Molecular Devices, Sunnyvale, Calif., USA).
Rabbit TSPC isolation was described above. TSPC in low serum media were treated with 10 μM of one of the 29-mer variants for 24 h. Cell proliferation was examined by a cell proliferation kit based on a kit provided nuclear dye that specifically binds to nucleic acid in the cell and generates green fluorescence.

cyclin D1 = experiment: Western blot analysis of cyclin D1 expression in TSPC; assay type: cell-based, rabbit; settings: TSPC treated 24 h; compared with solvent-treated cells; normalized to β-actin
Procedure: Primary rabbit TSPC were treated with 10NM 29-mer or its variants for 24 h. Representative blots (A) and densitometric analysis with the SD (B) from three independent experiments are shown. Cyclin D1 expression was normalized to ([…]. *P<0.01 vs. solvent-treated cells. ^#P<0.05 vs. 29-mer-treated cells.
as §1
Cell lysis, SDS-PAGE, and antibodies used for immunoblotting were performed as described (Ho et al., 15-deoxy-Delta(12,14)-prostaglandin J2 induces vascular endothelial cell apoptosis through the sequential activation of MAPKS and p53. J Biol. Chem., 2008; 283(44): 30273-30288). The band intensity in immunoblot was evaluated with a Model GS-700 imaging densitometer (Bio-Rad Laboratories, Hercules, Calif.) and analyzed using Labworks 4.0 software.
However, the 29-mer effect on cyclin D1 protein induction was almost abolished by alanine/glycine replacement at residue S93, A96, Q98, 1103, 1104 and R106, respectively (1.3±0.1, 1.5±0.3, 1.3±0.1, 0.9±0.1, 1.3±0.2, and 1.0±0.3). […] The data also imply that the PDSP at positions Ser93, Ala96, Gln98, Ile103, Ile104, and Arg106 are important for sustaining the PDSP effect on induction of TSPC proliferation.

injured Achilles tendon = experiment: Rat model of Achilles tendon injury, histology (H&E) and histopathological score; assay type: in vivo; settings: 1 week postoperative; subcutaneous 150 μl alginate gel with 100 μM peptide
Excerpt: Representative micrographs of the histopathological analysis by H&E staining. H&E-stained sections in higher magnification show uninjured tendon tissue with a relative scarcity of cells among the collagen fibers.
(A) Representative H&E-stained longitudinal sections in higher magnification show the nuclei morphologies in uninjured tendon tissue and injured tendon treated with vehicle/alginate and 29-mer/alginate for 1 week. (B) Histopathological scores. Total scores were determining by fiber structure, fiber arrangement, rounding of the nuclei, resident cell density and inflammation (infiltration of inflammatory cells, neovascularization and fatty deposits). Data are reported as mean±SE. *P<0.0005 versus vehicle/alginate-treated tendon; ^#P<0.05 versus 29-mer/alginate-treated tendon.
To investigate the effects of the 29-mer peptide on tendon healing, a rat model of Achilles tendon injury was established as reported by Orhan et al. (The effect of extracorporeal shock waves on a rat model of injury to tendon Achilles. A histological and biomechanical study. J. Bone Joint Surg. Br. 2004;.86(4):.613-618). Adult 10-week-old male Sprague-Dawley rats (initial body weight=312±11 g) were anesthetized by an intraperitoneal injection of xylazine (10 mg/kg). Then, the left tendo Achilles injury was created by full-thickness insertion of an 18-G needle through tendo Achilles 1 cm proximal to the calcaneum attachment site. This created a horizontal wound that was flanked by intact tendon tissue to prevent the retraction of severed ends. The skin incision was closed after the wound was irrigated with sterile saline. Treatments were applied to area around the tendon lesion by subcutaneous injection with 150 μl of alginate gel mixed with 100 μM 29-mer or DMSO vehicle (six rats per experimental condition).
The tendon and surrounding soft tissue were dissected. Specimens were fixed in a 4% paraformaldehyde (PFA) solution and then were embedded in paraffin blocks. Sections (5 μm in thickness) were longitudinally cut and stained with hematoxylin and eosin (H&E) or used for immunohistochemical examination. 36 sections per tendon were carefully prepared so as to include the most severely degenerated area. Images were captured using a Nikon Eclipse 80i microscope (Nikon Corporation, Tokyo, Japan) equipped with a Leica DC 500 camera (Leica Microsystems, Wetzlar, Germany). Four sections of each sample containing injured tendon tissues were selected and evaluated by two blinded observers to assess the tendon morphology according to a modified semi-quantitative grading score from 0 to 3 proposed by Chen et al. (Tendon derived stem cells promote platelet-rich plasma healing in collagenase-induced rat Achilles tendinopathy. Cell Physiol. Biochem., 2014; 34(6): 2153-68). The scores analyzed the fiber structure (0-3), fiber arrangement (0-3), rounding of the nuclei (0-3), resident cell density (0-3), and inflammation (0-3; infiltration of inflammatory cells, neovascularization and fatty deposits). According to this grading system, a perfectly normal tendon obtained a score of 0, whereas a score of 15 was assigned to maximally abnormal tendons.
To investigate the therapeutic effect of the 29-mer peptide on injured tendon, a rat model of Achilles tendon injury was established by full-thickness insertion of an 18-G needle through the tendon Achilles. We delivered the 29-mer in a 150 μl alginate gel, which releases 90% loaded 29-mer in 5 days as described in a previous protocol (Ho et al., PEDF-derived peptide promotes skeletal muscle regeneration through its mitogenic effect on muscle progenitor cells. Am J Physiol. Cell Physiol. 2015 Aug. 1; 309(3): C159-68).

Substance: 20-mer: PEDF-derived short peptide, Ser93-Leu112 (SLGAEQRTESIIHRALYYDL; UniProt P36955 93-112, looked up, fragment)
- healing of tendon rupture (tendon rupture): facilitated healing of tendon rupture
- induction of cultured TSPC proliferation [1]: able to induce cultured tendon stem/progenitor cells (TSPC) proliferation

Substance: 24-mer: PEDF-derived short peptide, Ser93-Pro (SLGAEQRTESIIHRALYYDLISSP; UniProt P36955 93-116, looked up, fragment)
- healing of tendon rupture (tendon rupture): facilitated healing of tendon rupture
- induction of cultured TSPC proliferation [1]: able to induce cultured tendon stem/progenitor cells (TSPC) proliferation

Substance: 1103A: 29-mer variant with single alanine replacement at isoleucine-103 (SLGAEQRTESAIHRALYYDLISSPDIHGT; UniProt P36955 93-121, looked up, variant I103A)
- TSPC proliferation (numbers of TSPC after 24-h expansion) (Primary rabbit TSPC): 106±5.3%
- induction of the cyclin D1 protein (cyclin D1): 0.9±0.1 fold
- histological appearance of treated tendon (H&E staining) (injured Achilles tendon): loss of fiber organization and accompanied a marked increase in inflammatory matrix, fatty deposits, and vascularity

Substance: 1104A: 29-mer variant with single alanine replacement at isoleucine-104 (SLGAEQRTESIAHRALYYDLISSPDIHGT; UniProt P36955 93-121, looked up, variant I104A)
- TSPC proliferation (numbers of TSPC after 24-h expansion) (Primary rabbit TSPC): 112±1.7%
- induction of the cyclin D1 protein (cyclin D1): 1.3±0.2 fold
- histological appearance of treated tendon (H&E staining) (injured Achilles tendon): loss of fiber organization and accompanied a marked increase in inflammatory matrix, fatty deposits, and vascularity

Substance: A96G: 29-mer variant with single glycine alteration at alanine-96 (SLGGEQRTESIIHRALYYDLISSPDIHGT; UniProt P36955 93-121, looked up, variant A96G)
- TSPC proliferation (numbers of TSPC after 24-h expansion) (Primary rabbit TSPC): 102±4.0%
- induction of the cyclin D1 protein (cyclin D1): 1.5±0.3 fold
- histological appearance of treated tendon (H&E staining) (injured Achilles tendon): loss of fiber organization and accompanied a marked increase in inflammatory matrix, fatty deposits, and vascularity

Substance: A107G: 29-mer variant with single glycine alteration at residue 107 (SLGAEQRTESIIHRGLYYDLISSPDIHGT; UniProt P36955 93-121, looked up, variant A107G)
- TSPC proliferation (numbers of TSPC after 24-h expansion) (Primary rabbit TSPC): 117±3.8%

Substance: P116A: 29-mer variant with single alanine alteration at residue 116 (SLGAEQRTESIIHRALYYDLISSADIHGT; UniProt P36955 93-121, looked up, variant P116A)
- TSPC proliferation (numbers of TSPC after 24-h expansion) (Primary rabbit TSPC): 115±3.7%

Substance: Q98A: 29-mer variant with single alanine replacement at glutamine-98 (SLGAEARTESIIHRALYYDLISSPDIHGT; UniProt P36955 93-121, looked up, variant Q98A)
- TSPC proliferation (numbers of TSPC after 24-h expansion) (Primary rabbit TSPC): 106±5.4%
- induction of the cyclin D1 protein (cyclin D1): 1.3±0.1 fold
- histological appearance of treated tendon (H&E staining) (injured Achilles tendon): loss of fiber organization and accompanied a marked increase in inflammatory matrix, fatty deposits, and vascularity

Substance: R99A: 29-mer variant with single alanine alteration at residue 99 (SLGAEQATESIIHRALYYDLISSPDIHGT; UniProt P36955 93-121, looked up, variant R99A)
- TSPC proliferation (numbers of TSPC after 24-h expansion) (Primary rabbit TSPC): 116±7.0%

Substance: R106A: 29-mer variant with single alanine replacement at arginine-106 (SLGAEQRTESIIHAALYYDLISSPDIHGT; UniProt P36955 93-121, looked up, variant R106A)
- TSPC proliferation (numbers of TSPC after 24-h expansion) (Primary rabbit TSPC): 106±3.5%
- induction of the cyclin D1 protein (cyclin D1): 1.0±0.3 fold
- histological appearance of treated tendon (H&E staining) (injured Achilles tendon): loss of fiber organization and accompanied a marked increase in inflammatory matrix, fatty deposits, and vascularity
